What was measured:
[1] = tested on: mesenteric arteries of mice with chronic heart failure; test: Flow-mediated dilatation of isolated mesenteric arteries from mice with chronic heart failure (coronary artery occlusion model); assay type: cell-based, C57BL6 mice; details: CHF mouse arteries, in-vitro incubation 30 min, preconstriction by phenylephrine
From the text: Experimentally, flow-induced release of NO in small peripheral arteries (i.e. arteries that contribute to the increased resistance in heart failure) may be assessed in vitro in isolated perfused, pressurized arteries such as small (<300 μm diameter) mesenteric or hindquarter arteries.
Chronic heart failure is induced in C57BL6 mice (n=12) by coronary ligation according to the model developed in rats by Varin et al,1999, Circulation, 99, 2951-2957.
Mice are anesthetized, ventilated and a thoracotomy (incision of the pleural cavity) is performed. The left main coronary artery is ligated close to its origin. This procedure leads to the development of an infarct involving around 40% of the left ventricle. Post-infarction mortality in this mouse model is around 40-50%.
The development of heart failure is assessed by echocardiography in the closed chest state 7 days and 2 months after coronary ligation. Sham-operated (normal) mice are subjected to the same protocol except that the artery is not be ligated. […]
(§1) Flow-mediated vasodilatation (FMD), i.e. changes in vessel diameter in response to stepwise increases in intra-luminal flow (0-200 μl/min) is evaluated after preconstriction by phenylephrine (incubated 2min at 10^-5 M) after a contraction plateau is reached, at baseline and after incubation with a compound of the invention: […]

[2] = tested on: mesenteric arteries of normal mice; test: Flow-mediated dilatation of isolated mesenteric arteries from normal (sham-operated) mice; assay type: cell-based, C57BL6 mice; details: 10^-5 M, compared with the roughly abolished response in CHF arteries (FIG. 1)
Description: The flow-mediated dilatation response in a normal mouse (open circles) is compared to the flow-mediated dilatation response of mesenteric arteries in either normal mouse subjected to an inhibitor of NO synthesis (left, black circles) or in a mouse wherein chronic heart failure (CHF) has been induced as described in Example 1 (right, black circles).
The development of heart failure is assessed by echocardiography in the closed chest state 7 days and 2 months after coronary ligation. Sham-operated (normal) mice are subjected to the same protocol except that the artery is not be ligated. Six mice are present in each group and mice that survived myocardial infarction are further used in the study.
After two months, the mice is anesthetized and subjected to laparotomy (incision into the abdominal cavity).
A portion of the mesenteric artery (diameter 250-350 μm) is carefully isolated under a dissection microscope, and a 1.5to 2.0-mm length segment is cannulated on both ends, transferred to an arteriograph (Living Systems Instrumentation) and pressurized to 60 mm Hg.
as §1

SMILES	flow-mediated dilatation (% dilatation) restoration ([1]; 10^-5 M in Krebs buffer, flow 0-200 μl/min (FIG. 2 left))	flow-mediated dilatation (% dilatation) restoration ([1]; 10^-6 M in Krebs buffer, flow 0-200 μl/min (FIG. 2 right))	inhibition of the flow-mediated dilatation response [2]
CCCCCCc1ccc(C#Cc2ccc(CN(Cc3ccc(C(F)(F)F)cc3)C(=O)C(=O)O)cc2)cc1 [Compound 1, {{4-[(4-hexylphenyl)ethynyl]benzyl}[4-(trifluoromethyl)benzyl]amino}(oxo)acetic acid]	restored to the normal level	restored to the normal level	–
N=C(NCCC[C@H](N)C(=O)O)N[N+](=O)[O-] [NG-nitro-L-arginine]	–	–	inhibition of the dilatation response is similar
